In US20020026053A1, “Novel 3-(substituted) -2- indolinones compounds and use thereof as inhibitors of protein kinase activity” (priority 1997, published 2002):

biological target: T1, EGFR (Homo sapiens, UniProt P00533); assay: Biochemical EGFR Assay; parameters: concentration or dose not given beside the values
T1 construct: endogenous in cells; host or cells: A431 cells (lysate, captured with SUMO1 anti-EGFR antibody)
Procedure: This assay measures the in vitro kinase activity of EGFR using ELISA.
1. Corning 96-well Elisa plates (Corning Catalog No. 25805-96).
2. SUMO1 monoclonal anti-EGFR antibody (Biochemistry Lab, SUGEN, Inc.).
3. PBS (Dulbecco's Phosphate-Buffered Saline, Gibco Catalog No. 450-1300EB).
6. A431 cell lysate (Screening Lab, SUGEN, Inc.)
9. Adenosine-5′-triphosphate (ATP, from Equine muscle, Sigma Cat. No. A-5394).
Prepare a 1.0 mM solution in dH2O. This reagent should be made up immediately prior to use and kept on ice.
Prepare a 1.0 M stock solution in dH2O.
11. ATP/MnCl2 phosphorylation mix
This reagent should be prepared immediately before use and kept on ice
12. NUNC 96-well V bottom polypropylene plates (Applied Scientific Cat. No. AS-72092).
13. Ethylenediaminetetraacetic acid (EDTA)
Prepare 200 mM working solution in dH2O. Adjust to pH 8.0 with 10 N NaOH.
14. Rabbit polyclonal anti-phosphotyrosine serum (Biochemistry Lab, SUGEN, Inc.)
15. Goat anti-rabbit IgG peroxidase conjugate (Biosource Cat. No. ALI0404)
16. ABTS (2,2′-azino-bis(3-ethylbenzthiazoline-6-sulfonic acid), Sigma Cat. No. A-1888).
Mix first two ingredients in about 900 ml dH2O, adjust pH to 4.0 with phosphoric acid. Add ABTS, cover, let sit about 0.5 hr., filter. The solution should be kept in the dark at 4° C. until ready to use.
17. Hydrogen peroxide 30% solution (Fisher Cat. No. H325)
Mix 15 ml ABTS solution and 2.0 μl H2O2. Prepare 5 minutes before use.
1. Coat Corning 96 well ELISA plates with 0.5 μg SUMO1 in 100 μl PBS per well, store overnight at 4° C.
2. Remove unbound SUMO1 from wells by inverting plate to remove liquid. Wash 1× with dH2O. Pat the plate on a paper towel to remove excess liquid.
3. Add 150 μl of Blocking Buffer to each well. Incubate for 30 min. at room temperature with shaking.
4. Wash plate 3× with deionized water, then once with TBST. Pat plate on a paper towel to remove excess liquid and bubbles.
5. Dilute lysate in PBS (7 μg lysate/100 μl PBS)
6. Add 100 μl of diluted lysate to each well. Shake at room temperature for 60 min.
7. Wash plates as described in 4, above.
8. Add 120 μl TBS to ELISA plate containing captured EGFR.
9. Dilute test compound 1:10 in TBS in 96-well polypropylene plates (ie. 10 μl compound+90 μl TBS).
10. Add 13.5 μl diluted test compound to ELISA plate.
11. Incubate for 30 minutes while shaking at room temperature.
13. After 5 minutes, stop reaction by adding 16.5 μl of 200 mM EDTA (pH 8.0) to each well, shaking continuously. After the EDTA has been added, shake for 1 min.
14. Wash 4× with deionized water, twice with TBST.
15. Add 100 μl anti-phosphotyrosine (1:3000 dilution in TBST) per well. Incubate 30-45 min. at room temperature, with shaking.
16. Wash as described in 4, above.
17. Add 100 μl Biosource Goat anti-rabbit IgG peroxidase conjugate (1:2000 dilution in TBST) to each well. Incubate 30 min. at room temperature, with shaking.
18. Wash as described in 4, above.
19. Add 100 μl of ABTS/H2O2 solution to each well.
20. Incubate 5 to 10 minutes with shaking. Remove any bubbles.
21. If necessary stop reaction with the addition of 100 μl 0.2 M HCl per well.
22. Read assay on Dynatech MR7000 ELISA reader. Test Filter: 410 nM Reference Filter: 630 nM

T1 sequence (P00533 25-1210): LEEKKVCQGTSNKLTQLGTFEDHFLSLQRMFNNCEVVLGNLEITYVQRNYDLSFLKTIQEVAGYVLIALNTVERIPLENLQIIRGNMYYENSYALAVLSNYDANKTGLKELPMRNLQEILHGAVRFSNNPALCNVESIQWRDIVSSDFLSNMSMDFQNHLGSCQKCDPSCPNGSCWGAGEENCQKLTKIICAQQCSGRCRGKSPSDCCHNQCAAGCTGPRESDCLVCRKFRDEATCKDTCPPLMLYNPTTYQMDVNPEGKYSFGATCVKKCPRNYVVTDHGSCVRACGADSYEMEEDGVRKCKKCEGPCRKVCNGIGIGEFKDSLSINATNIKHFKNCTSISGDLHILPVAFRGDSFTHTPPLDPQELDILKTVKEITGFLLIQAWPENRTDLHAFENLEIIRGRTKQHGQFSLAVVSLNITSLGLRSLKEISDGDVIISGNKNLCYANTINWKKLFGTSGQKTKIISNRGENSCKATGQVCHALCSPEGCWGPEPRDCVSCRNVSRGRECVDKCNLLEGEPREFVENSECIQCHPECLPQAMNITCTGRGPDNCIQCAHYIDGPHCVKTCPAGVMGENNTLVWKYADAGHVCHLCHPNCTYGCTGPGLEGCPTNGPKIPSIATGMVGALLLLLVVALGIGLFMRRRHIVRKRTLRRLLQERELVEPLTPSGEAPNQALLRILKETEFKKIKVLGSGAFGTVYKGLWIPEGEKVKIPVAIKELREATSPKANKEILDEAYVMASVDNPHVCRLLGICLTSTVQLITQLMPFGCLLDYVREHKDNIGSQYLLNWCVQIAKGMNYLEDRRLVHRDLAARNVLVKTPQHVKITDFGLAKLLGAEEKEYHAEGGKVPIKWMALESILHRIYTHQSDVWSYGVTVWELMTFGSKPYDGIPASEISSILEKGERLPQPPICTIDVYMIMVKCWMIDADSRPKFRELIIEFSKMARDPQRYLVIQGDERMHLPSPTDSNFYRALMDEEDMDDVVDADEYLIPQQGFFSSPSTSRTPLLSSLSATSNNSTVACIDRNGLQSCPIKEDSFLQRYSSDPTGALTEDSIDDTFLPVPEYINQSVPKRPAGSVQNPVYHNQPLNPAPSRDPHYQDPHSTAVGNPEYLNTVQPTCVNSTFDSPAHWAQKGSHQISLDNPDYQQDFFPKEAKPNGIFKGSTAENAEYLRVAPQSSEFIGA

Point of comparison: `Cc1c(Br)cc(Br)c2c1C(=Cc1c[nH]c(=O)[nH]c1=O)C(=O)N2` [10731/H08], “Biochem EGFR % Inhibition (P.167)” value −0.5%. Against it:
- Cc1c(Br)cc(Br)c2c1C(=Cc1ccc(F)cc1)C(=O)N2 [10717/H05] — lower, −2.0%
- Cc1c(Br)cc(Br)c2c1C(=Cc1c[nH]c3ccccc13)C(=O)N2 [10717/H06] — lower, −16.8%
- Cc1ccc(C=C2C(=O)Nc3c(Br)cc(Br)c(C)c32)s1 [10717/H07] — higher, 91.2%
- Cc1c(Br)cc(Br)c2c1C(=Cc1ccc(Br)cc1)C(=O)N2 [10717/H08] — higher, 33.4%
- Cc1c(Br)cc(Br)c2c1C(=Cc1ccc[nH]1)C(=O)N2 [10717/H09] — higher, 5.4%
- COc1cccc(O)c1C=C1C(=O)Nc2c(Br)cc(Br)c(C)c21 [10717/H10] — higher, 0.5%
- Cc1[nH]c(C=C2C(=O)Nc3c(Br)cc(Br)c(C)c32)c(Br)c1Br [10717/H11] — higher, 55.6%
- Cc1c(Br)cc(Br)c2c1C(=Cc1ccc(Br)o1)C(=O)N2 [10726/H05] — higher, 2.2%
- Cc1cn(C)cc1C=C1C(=O)Nc2c(Br)cc(Br)c(C)c21 [10726/H06] — lower, −9.2%
- Cc1c(Br)cc(Br)c2c1C(=Cc1cc(O)c3c(c1O)CCCC3)C(=O)N2 [10726/H07] — higher, 31.2%
- Cc1c(Br)cc(Br)c2c1C(=C1C(=O)Nc3ccc(F)cc31)C(=O)N2 [10726/H08] — lower, −16.6%
- Cc1c(Br)cc(Br)c2c1C(=C1C(=O)Nc3ccccc31)C(=O)N2 [10726/H09] — higher, −0.1%
- CCc1ccc(C=C2C(=O)Nc3c(Br)cc(Br)c(C)c32)s1 [10726/H10] — higher, 12.0%
- COc1ccc(C=C2C(=O)Nc3c(Br)cc(Br)c(C)c32)cc1 [10726/H11] — higher, 1.5%
- CCN(CC)c1ccc(C=C2C(=O)Nc3c(Br)cc(Br)c(C)c32)cc1 [10727/H02] — lower, −37.1%
- CCc1cc(CC)c(C=C2C(=O)Nc3c(Br)cc(Br)c(C)c32)[nH]1 [10727/H03] — higher, 4.5%
- Cc1c(Br)cc(Br)c2c1C(=Cc1cc(Cl)cc(Br)c1O)C(=O)N2 [10727/H04] — higher, 19.2%
- Cc1c(Br)cc(Br)c2c1C(=Cc1ccccc1Sc1ccc(Cl)cc1)C(=O)N2 [10727/H05] — higher, 0.4%
- Cc1c(Br)cc(Br)c2c1C(=Cc1cc3c(cc1Cl)OCO3)C(=O)N2 [10727/H06] — lower, −35.8%
- Cc1c(Br)cc(Br)c2c1C(=Cc1coc3ccccc3c1=O)C(=O)N2 [10727/H07] — lower, −17.3%
- Cc1c(Br)cc(Br)c2c1C(=Cc1cccc(C#N)c1)C(=O)N2 [10727/H08] — lower, −8.0%
- Cc1c(Br)cc(Br)c2c1C(=Cc1ccc(C#N)cc1)C(=O)N2 [10727/H09] — lower, −6.1%
- Cc1c(Br)cc(Br)c2c1C(=Cc1cc(O)ccc1O)C(=O)N2 [10727/H10] — higher, 83.6%
- COc1cccc(C=C2C(=O)Nc3c(Br)cc(Br)c(C)c32)c1OC [10727/H11] — lower, −3.5%
- COc1ccc(OC)c(C=C2C(=O)Nc3c(Br)cc(Br)c(C)c32)c1 [10728/H02] — lower, −36.6%
- COc1cccc(OC)c1C=C1C(=O)Nc2c(Br)cc(Br)c(C)c21 [10728/H03] — higher, 3.5%
- COc1cc(C=C2C(=O)Nc3c(Br)cc(Br)c(C)c32)cc(OC)c1 [10728/H04] — lower, −0.6%
- Cc1c(Br)cc(Br)c2c1C(=Cc1ccc3c(c1)Cc1ccccc1-3)C(=O)N2 [10728/H06] — lower, −22.8%
- Cc1c(Br)cc(Br)c2c1C(=Cc1cccc(C(F)(F)F)c1F)C(=O)N2 [10728/H07] — lower, −25.8%
- Cc1c(Br)cc(Br)c2c1C(=Cc1c(F)cccc1C(F)(F)F)C(=O)N2 [10728/H09] — lower, −6.1%
- Cc1c(Br)cc(Br)c2c1C(=Cc1ccccc1OCC(=O)O)C(=O)N2 [10728/H10] — lower, −22.4%
- COc1cc(C=C2C(=O)Nc3c(Br)cc(Br)c(C)c32)cc2c1OCO2 [10728/H11] — lower, −25.6%
- COc1ccc2ccccc2c1C=C1C(=O)Nc2c(Br)cc(Br)c(C)c21 [10729/H02] — lower, −10.7%
- COc1ccc(C=C2C(=O)Nc3c(Br)cc(Br)c(C)c32)c2ccccc12 [10729/H03] — higher, 30.3%
- CSc1ccc(C=C2C(=O)Nc3c(Br)cc(Br)c(C)c32)cc1 [10729/H04] — lower, −4.4%
- Cc1ccsc1C=C1C(=O)Nc2c(Br)cc(Br)c(C)c21 [10729/H05] — lower, −4.4%
- Cc1c(Br)cc(Br)c2c1C(=Cc1cccc(Oc3ccccc3)c1)C(=O)N2 [10729/H06] — lower, −10.3%
- Cc1c(Br)cc(Br)c2c1C(=Cc1ccccn1)C(=O)N2 [10729/H07] — higher, 30.0%
- Cc1c(Br)cc(Br)c2c1C(=Cc1cccnc1)C(=O)N2 [10729/H08] — higher, 8.7%
- Cc1c(Br)cc(Br)c2c1C(=Cc1ccncc1)C(=O)N2 [10729/H09] — higher, 8.0%
- Cc1c(Br)cc(Br)c2c1C(=Cc1ccc(N3CCCC3)cc1)C(=O)N2 [10729/H10] — higher, 2.1%
- Cc1c(Br)cc(Br)c2c1C(=CC1C=CCCC1)C(=O)N2 (centres unmarked) [10729/H11] — higher, 0.8%
- COc1ccc(C=C2C(=O)Nc3c(Br)cc(Br)c(C)c32)c(OC)c1OC [10730/H02] — higher, 12.6%
- COc1cc(OC)c(OC)cc1C=C1C(=O)Nc2c(Br)cc(Br)c(C)c21 [10730/H03] — lower, −3.4%
- COc1cc(C=C2C(=O)Nc3c(Br)cc(Br)c(C)c32)cc(OC)c1OC [10730/H04] — lower, −29.5%
- CC(=O)n1cc(C=C2C(=O)Nc3c(Br)cc(Br)c(C)c32)c2ccccc21 [10730/H05] — lower, −20.1%
- Cc1c(Br)cc(Br)c2c1C(=Cc1ccc(-c3ccccc3Cl)o1)C(=O)N2 [10730/H07] — lower, −3.2%
- Cc1c(Br)cc(Br)c2c1C(=Cc1cc3ccccc3nc1Cl)C(=O)N2 [10730/H08] — lower, −15.8%
- COC1CC(C=C2C(=O)Nc3c(Br)cc(Br)c(C)c32)C(OC)O1 (centres unmarked) [10730/H10] — higher, 1.7%
- Cc1cc(C=C2C(=O)Nc3c(Br)cc(Br)c(C)c32)oc1C [10730/H11] — higher, 26.4%
- CCn1c2ccccc2c2cc(C=C3C(=O)Nc4c(Br)cc(Br)c(C)c43)ccc21 [10731/H02] — lower, −9.5%
- Cc1cc2occ(C=C3C(=O)Nc4c(Br)cc(Br)c(C)c43)c(=O)c2cc1C [10731/H03] — lower, −1.5%
- C=C(C)C1CC=C(C=C2C(=O)Nc3c(Br)cc(Br)c(C)c32)CC1 (centres unmarked) [10731/H04] — lower, −1.7%
- Cc1c(Br)cc(Br)c2c1C(=Cc1coc3ccc(C(C)C)cc3c1=O)C(=O)N2 [10731/H05] — lower, −3.6%
- Cc1ccc2occ(C=C3C(=O)Nc4c(Br)cc(Br)c(C)c43)c(=O)c2c1 [10731/H06] — lower, −7.8%
- Cc1c(Br)cc(Br)c2c1C(=Cc1coc3ccc([N+](=O)[O-])cc3c1=O)C(=O)N2 [10731/H07] — lower, −1.7%
- COc1ccc2[nH]cc(C=C3C(=O)Nc4c(Br)cc(Br)c(C)c43)c2c1 [10731/H09] — lower, −2.7%
- Cc1c(Br)cc(Br)c2c1C(=C1C(=O)N(C)c3ccccc31)C(=O)N2 [10731/H10] — higher, 3.5%
